In patent US8288386B2, “Melanocortin receptor agonists” (LG Life Sciences Ltd., priority 2008, dated 2012):

Target: T1, MC4R (Homo sapiens, UniProt P32245)
T1 construct: expressed in transfected cells; host or cells: HEK (Human Embryonic Kidney) permanent expression cell line HEK MC4R-Luc, with CRE-LUC reporter
Assay: MCR agonistic activity (luciferase assay / cAMP accumulation assay) in HEK MC4R-Luc cells
Assay type: cell-based
Conditions: agonistic activity to MC4R; ranges given; read-out: EC50 value in the range
Experimental: Physiological activity of the compounds of the present invention was assessed by measuring agonistic activity as well as binding activity for melanocortin receptors (MCR) according to methods A and B explained as follows.
As one of the methods to measure MCR agonistic activity of the compound according to the present invention, the expression level of a marker gene (for example, luciferase) which increases proportionally according to the increase of cAMP content in the cell, was measured.
First, permanent expression HEK (Human Embryonic Kidney) cell lines (HEK MC1R-Luc, MC3R-Luc, MC4R-Luc or MC5R-Luc) expressing the MCR gene of each subtype together with luciferase gene (CRE-LUC) under the control of CRE (cAMP Response Element) were constructed. The above cell lines were incubated in an incubator with 6% CO2 atmosphere at 37° C. using selection medium, DMEM (Dulbecco's Modified Eagles Medium) containing 10% heat-inactivated fetal bovine serum (Gibco/BRL), 100 unit/ml, penicillin (Gibco/BRL), 100 unit/ml streptomycin (Gibco/BRL), and 200 μg/ml geneticin (G418) (Gibco/BRL). […] After allowing the treated cells to be at room temperature for 15 minutes, luminescence was measured for each well by using luminometer (Victor). The level of luminescence induced by the stepwise-diluted agonist was converted to relative % value to those by the treatment of 10 μM NDP-MSH. […]
As another method to measure MCR agonistic activity of the compound according to the present invention, an increase of cAMP amount in the cell was measured.
First, permanent expression HEK (Human Embryonic Kidney) cell lines (HEK MC1R-Luc, MC3R-Luc, MC4R-Luc or MC5R-Luc) expressing the MCR gene of each subtype were plated onto each well of 24-well culture plates for Luminometer (Costar) with a concentration of 2×10^5 cell in 1 ml culture medium for each well, and then incubated in an incubator with 6% CO2 atmosphere at 37° C. for 24 hours. […] Then, the cAMP amount in each cell was measured using Amersham cAMP assay Kit (TRK432). […]

T1 sequence (P32245 whole entry, species assumed): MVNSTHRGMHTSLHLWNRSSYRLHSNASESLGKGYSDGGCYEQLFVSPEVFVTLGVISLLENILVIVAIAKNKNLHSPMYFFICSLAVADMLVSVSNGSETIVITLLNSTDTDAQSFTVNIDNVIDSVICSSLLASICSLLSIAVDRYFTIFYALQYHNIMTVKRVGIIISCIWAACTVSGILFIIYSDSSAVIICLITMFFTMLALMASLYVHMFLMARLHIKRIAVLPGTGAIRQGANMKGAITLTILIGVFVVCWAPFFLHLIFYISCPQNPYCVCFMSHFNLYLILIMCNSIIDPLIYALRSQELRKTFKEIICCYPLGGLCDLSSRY

Row | EC50 [nM] | Structure (SMILES)
1 | 100 to 1000 | CC(=O)N(C1CCC(F)(F)CC1)[C@H]1C[C@@H](C(=O)N2CCN(C)CC2)N(C(=O)[C@@H]2CN(C(C)(C)C)C[C@H]2c2ccc(Cl)cc2)C1 [Example 27, N-{(3S,5S)-1-{[(3S,4R)-1-tert-butyl-4-(4-chlorophenyl)pyrrolidin-3-yl]carbonyl}-5-[(4-methylpiperazin-1-yl)carbonyl]pyrrolidin-3-yl}-N-(4,4-difluorocyclohexyl)acetamide]
2 | 10 to 100 | CC(C)C(=O)N(c1ccc(F)cc1F)[C@H]1C[C@@H](C(=O)N2CCN(C)CC2)N(C(=O)[C@@H]2CN(C(C)(C)C)C[C@H]2c2ccc(Cl)cc2)C1 [Example 79, N-{(3S,5S)-1-{[(3S,4R)-1-tert-butyl-4-(4-chlorophenyl)pyrrolidin-3-yl]carbonyl}-5-[(4-methylpiperazin-1-yl)carbonyl]pyrrolidin-3-yl}-N-(2,4-difluorophenyl)-2-methylpropanamide]
3 | 100 to 1000 | CN1CCN(C(=O)[C@@H]2C[C@H](N(C(=O)c3ccco3)c3ccc(F)cc3F)CN2C(=O)[C@@H]2CN(C(C)(C)C)C[C@H]2c2ccc(F)cc2F)CC1 [Example 84, N-{(3S,5S)-1-{[(3S,4R)-1-tert-butyl-4-(2,4-difluorophenyl)pyrrolidin-3-yl]carbonyl}-5-[(4-methylpiperazin-1-yl)carbonyl]pyrrolidin-3-yl}-N-(2,4-difluorophenyl)-2-furamide]
